Reference: patent publication US7968080B2, “Somatostatin analogs with inhibitory activity to growth hormone release” (The Regents of the University of California, priority 2003, dated 2011)
Like-named read-outs stand apart in the source and are kept apart here.

Legend:
hsst2 = hsst2 (Homo sapiens, UniProt P30874); assay: Binding of beta-MeTrp analogs of L-363,301 to hsst2
[1] = tested on: somatostatin receptors hsst1-5; assay: Binding potencies and selectivities at somatostatin receptors hsst1-5; parameters: species or system human
SST3 = SST3 (Homo sapiens, UniProt P32745); assay: Binding affinities of SS-14, Sandostatin and RC-121 (Table 1); details: read-out: Ki ± SEM, SST3
SST3, sequence (P32745 whole entry, species assumed): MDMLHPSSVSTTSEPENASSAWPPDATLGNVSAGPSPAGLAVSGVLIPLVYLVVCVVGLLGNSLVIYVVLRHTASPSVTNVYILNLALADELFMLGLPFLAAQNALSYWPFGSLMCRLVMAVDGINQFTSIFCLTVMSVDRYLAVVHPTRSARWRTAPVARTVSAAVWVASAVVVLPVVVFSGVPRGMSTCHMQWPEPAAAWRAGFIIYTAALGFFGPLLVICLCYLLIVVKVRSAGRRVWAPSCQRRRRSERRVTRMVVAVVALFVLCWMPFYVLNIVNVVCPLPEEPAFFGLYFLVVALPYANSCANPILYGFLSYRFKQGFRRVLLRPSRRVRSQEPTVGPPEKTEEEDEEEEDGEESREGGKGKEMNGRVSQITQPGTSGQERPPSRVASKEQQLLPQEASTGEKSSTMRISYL

SST1 = SST1 (Homo sapiens, UniProt P30872); assay: as above; details: read-out: Ki ± SEM, SST1
SST1, sequence (P30872 whole entry, species assumed): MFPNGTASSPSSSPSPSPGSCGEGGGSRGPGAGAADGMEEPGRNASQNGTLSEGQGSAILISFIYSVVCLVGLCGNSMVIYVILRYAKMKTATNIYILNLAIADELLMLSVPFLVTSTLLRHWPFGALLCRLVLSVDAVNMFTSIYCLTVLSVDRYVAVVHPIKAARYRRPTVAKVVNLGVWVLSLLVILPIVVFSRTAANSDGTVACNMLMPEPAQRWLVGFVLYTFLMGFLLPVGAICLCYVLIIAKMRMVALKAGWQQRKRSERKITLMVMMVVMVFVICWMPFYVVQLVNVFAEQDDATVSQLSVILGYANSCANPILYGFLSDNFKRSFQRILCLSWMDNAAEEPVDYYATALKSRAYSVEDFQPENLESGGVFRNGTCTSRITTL

SST4 = SST4 (Homo sapiens, UniProt P31391); assay: as above; details: read-out: Ki ± SEM, SST4
SST4, sequence (P31391 whole entry, species assumed): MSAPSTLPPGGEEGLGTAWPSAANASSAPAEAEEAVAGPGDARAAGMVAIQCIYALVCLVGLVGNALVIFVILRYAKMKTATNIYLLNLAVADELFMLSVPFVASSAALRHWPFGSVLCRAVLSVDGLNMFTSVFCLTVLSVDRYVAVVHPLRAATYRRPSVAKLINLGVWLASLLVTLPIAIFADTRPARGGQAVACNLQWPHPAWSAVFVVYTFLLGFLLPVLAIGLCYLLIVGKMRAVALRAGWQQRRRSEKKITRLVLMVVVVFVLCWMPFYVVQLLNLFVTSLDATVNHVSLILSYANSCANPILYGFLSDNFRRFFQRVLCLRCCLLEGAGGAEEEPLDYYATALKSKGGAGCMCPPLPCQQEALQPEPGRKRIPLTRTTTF

SST 1-5 = details: background statement; cited from earlier work

hsst2, sequence (P30874 whole entry): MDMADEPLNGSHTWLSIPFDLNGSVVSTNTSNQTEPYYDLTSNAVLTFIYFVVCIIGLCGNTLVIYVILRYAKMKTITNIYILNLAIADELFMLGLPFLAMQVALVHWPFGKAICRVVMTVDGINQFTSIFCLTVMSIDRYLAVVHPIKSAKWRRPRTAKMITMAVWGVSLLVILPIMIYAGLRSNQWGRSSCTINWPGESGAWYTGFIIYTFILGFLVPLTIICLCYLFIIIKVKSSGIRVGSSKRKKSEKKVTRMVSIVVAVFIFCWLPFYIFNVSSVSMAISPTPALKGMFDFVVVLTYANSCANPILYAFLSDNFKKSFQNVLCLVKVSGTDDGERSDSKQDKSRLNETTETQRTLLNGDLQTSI

In the case of c[Pro-Phe-(2R,3S)-β-MeTrp-Lys-Thr-Phe], the “binding to receptor hsst2” value (hsst2) is reported as “nanomolar range”, the “binding to receptor hsst2” value (hsst2; listed as (2R,3S)-β-MeTrp diastereomer) is reported as “bind very well to hsst2” and the “potency relative to parent peptide L-363,301” value [1] is reported as “more potent than the parent peptide”. The “selectivity among hsst1-5” value [1] was “highly selective for hsst2”.
In the case of `CC(C)[C@@H]1NC(=O)[C@H](CCCCN)NC(=O)[C@@H](Cc2c[nH]c3ccccc23)NC(=O)[C@H](Cc2ccc(O)cc2)NC(=O)[C@@H](NC(=O)[C@H](N)Cc2ccccc2)CSSC[C@@H](C(=O)N[C@H](C(N)=O)[C@@H](C)O)NC1=O` [RC-121, D-Phe-c[Cys-Tyr-D-Trp-Lys-Val-Cys]-Thr-NH2], the Ki (SST3) is reported as > 1000 nM, the Ki (SST1) is reported as > 1000 nM and the Ki (SST4) is reported as > 1000 nM.
For “SS-28: N-terminally extended version of SS-14 that has an additional 14 amino acid residues”, the “interaction with SS receptor subtypes (background)” value (SST 1-5) is given as “high affinity”.
In the case of c[Pro-Phe-(2R,3R)-β-MeTrp-Lys-Thr-Phe], the “binding to receptor hsst2” value (hsst2) is reported as “nanomolar range”, the “potency relative to parent peptide L-363,301” value [1] is reported as “much less active” and the “selectivity among hsst1-5” value [1] is reported as “highly selective for hsst2”.
In the case of `C[C@@H](O)[C@@H]1NC(=O)[C@H](CCCCN)NC(=O)[C@@H](Cc2c[nH]c3ccccc23)NC(=O)[C@H](Cc2ccccc2)NC(=O)[C@@H](NC(=O)[C@H](N)Cc2ccccc2)CSSC[C@@H](C(=O)N[C@H](CO)[C@@H](C)O)NC1=O` [Sandostatin, D-Phe-c[Cys-Phe-D-Trp-Lys-Thr-Cys]-Thr-ol], the “interaction with SS receptor subtypes (background)” value (SST 1-5) is listed as “interact significantly with three of the receptor subtypes, i.e. SST2, SST3 and SST5”.
